Test [1] deals with L 1210 murine leukemia cells. In words: Cytotoxicity assay against L 1210 murine leukemia cells, 48 hours. Type of test: cell-based. The conditions noted are these: for IC50: Mus musculus, read-out: L1210 cell growth inhibition IC50; for L1210 normalized relative to MTX: number in parentheses. The method, then:
(§1) A cytotoxicity assay was carried out for the same group of compounds against L 1210 and L 1210/R81 murine leukemia cells cultured for 48 hours in RPMI 1640 medium containing 10% fetal bovine serum, using the procedure of Mosman, J. Immunol. Meth., Vol. 65, 55-63 (1983).

In test [2] the test system is L 1210/R81 murine leukemia cells. In words: Cytotoxicity assay against L 1210/R81 murine leukemia cells, 48 hours. Format: cell-based. The conditions noted are these: for IC50: Mus musculus, L1210 ( R81), read-out: L1210/R81 cell growth inhibition IC50; for L1210/R81 normalized relative to MTX: number in parentheses. The method, then: as §1
The test system of the next test is CEM lymphoblasts. In words: Cell growth inhibition against human CEM lymphoblasts, 48 hours. Type of test: cell-based. Conditions: for IC50: Homo sapiens, CCRF-CEM, read-out: CEM cell growth inhibition IC50; for CEM normalized relative to MTX: number in parentheses. Here is the method:
(§2) In addition, four of the compounds were tested against human CEM and CEM/MTX lymphoblasts cultured fcr 48 hours in Dulbecco's modified Eagle's medium containing 10% fetal bovine serum.

The subject of a further test is CEM/MTX lymphoblasts. In words: Cell growth inhibition against human CEM/MTX lymphoblasts, 48 hours. Type of test: cell-based. The conditions noted are these: for IC50: Homo sapiens, read-out: CEM/MTX cell growth inhibition IC50; for CEM/MTX normalized relative to MTX: number in parentheses. The method, then:
as §2

For test [3], the target named is T1, DHFR (Dihydrofolate Reductase) from L 1210/R81 murine leukemia cells (Mus musculus, UniProt P00375).
T1 construct: endogenous in cells; host or cells: L1210/R81 murine leukemia cells
T1 sequence (P00375 1-187): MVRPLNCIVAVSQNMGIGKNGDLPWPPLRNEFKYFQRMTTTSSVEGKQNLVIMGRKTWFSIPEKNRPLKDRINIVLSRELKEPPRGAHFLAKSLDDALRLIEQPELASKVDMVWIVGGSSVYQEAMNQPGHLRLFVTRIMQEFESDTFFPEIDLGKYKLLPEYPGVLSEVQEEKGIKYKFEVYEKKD
In words: Inhibition of DHFR purified by MTX affinity chromatography from L 1210/R81 murine leukemia cells (spectrophotometric, 340 nm). Type of test: biochemical. The conditions noted are these: range of six separate experiments on different days (footnote a, Table 1). Here is the method: Inhibition of DHFR purified by MTX affinity chromatography from L 1210/R81 murine leukemia cells was determined. […] Certain of the compounds were also tested as inhibitors of partially purified FPGS from mouse liver.
IC50 concentrations (μM) were […]

Test [4] relates to SCC15 cells. Conditions: taken from Rosowsky et al. (1985); cited from earlier work.
The subject of test [5] is SCC15/R1 cells. Conditions: taken from Rosowsky et al. (1985); cited from earlier work.
For test [6], the system named is SCC25 cells. The conditions noted are these: taken from Rosowsky et al. (1985); cited from earlier work.
The test system of test [7] is SCC25/R1 cells. The conditions noted are these: taken from Rosowsky et al. (1985); cited from earlier work.
Another test concerns mouse liver FPGS. The conditions noted are these: footnote c, Table 1; see Moran et al.; cited from earlier work.
Test [8] has as its system parental SCC15 and SCC25 cells. In words: Growth inhibition of parental SCC15 and SCC25 cells (joint statement). Type of test: cell-based, human.
Test [9] has as its system MTX-resistant SCC15/R1 and SCC25/R1 sublines. In words: Growth inhibition of MTX-resistant SCC15/R1 and SCC25/R1 sublines (joint statement). Type of test: cell-based, human.
The test system of test [10] is dihydrofolate reductase (DHFR). The conditions noted are these: result in words; Rosowsky et al. (1986); cited from earlier work.
Test [11] concerns folylpolyglutamate synthetase (FPGS). The conditions noted are these: result in words; Rosowsky et al. (1986); cited from earlier work.
The next test deals with cell growth in culture. Conditions: result in words; Rosowsky et al. (1986); cited from earlier work.
Test [12] has as its system SCC15 cells. In words: Growth inhibition of human squamous carcinoma cells SCC15. Format: cell-based. Conditions: SCC-15, 336 h, continuous exposure about two weeks.
The test system of test [13] is SCC15/R1 cells. In words: Growth inhibition of MTX-resistant human squamous carcinoma cells SCC15/R1. The conditions noted are these: SCC-15, 336 h, continuous exposure about two weeks. Format: cell-based.
Test [14] concerns SCC25 cells. In words: Growth inhibition of human squamous carcinoma cells SCC25. Type of test: cell-based. The conditions noted are these: SCC-25, 336 h, continuous exposure about two weeks.
The test system of test [15] is SCC25/R1 cells. In words: Growth inhibition of MTX-resistant human squamous carcinoma cells SCC25/R1. Format: cell-based. Conditions: SCC-25, 336 h, continuous exposure about two weeks.
Test [16] deals with L1210, L1210/R81, CEM and CEM/MTX cells. In words: Cell growth inhibition of Table 2 (joint statement). The conditions noted are these: comparison with the other compounds. Type of test: cell-based, murine; human. Here is the method:
as §1
In addition, four of the compounds were tested against human CEM and CEM/MTX lymphoblasts cultured fcr 48 hours in Dulbecco's modified Eagle's medium containing 10% fetal bovine serum. The IC50 (μM) values, with normalized values relative to MTX given in parentheses, are reported in the last two columns of Table 2.

The mark [17] stands for this setting: L1210, 48 hours, RPMI 1640, 10% fetal bovine serum.
[18] abbreviates: 48 hours, RPMI 1640, 10% fetal bovine serum.
Where [19] appears, read: 48 hours, Dulbecco's modified Eagle's medium, 10% fetal bovine serum.

Structures are written as SMILES. Read-outs that look alike come from different tables or passages of the source.

With `Nc1nc(N)c2nc(CNc3ccc(C(=O)N[C@@H](CCCNC(=O)c4ccc(Cl)cc4)C(=O)O)cc3)cnc2n1` [Compound 5], the IC50 in test [1] (setting [17]) worked out at 3.2 nM; in test [2] (setting [18]), 27000 nM; with CEM lymphoblasts (setting [19]), 270 nM; with CEM/MTX lymphoblasts (setting [19]) it was 1000 nM. Besides, the “L1210 normalized relative to MTX” value in test [1] is given as 1.4. In test [2], the “L1210/R81 normalized relative to MTX” value came out at 7.4. Moreover, in the test on CEM lymphoblasts, the “CEM normalized relative to MTX” value was determined as 0.12. Besides, the “CEM/MTX normalized relative to MTX” value in the test with CEM/MTX lymphoblasts was 6.6.

With `Nc1nc(N)c2nc(CNc3ccc(C(=O)N[C@@H](CCCNC(=O)c4ccccc4)C(=O)O)cc3)cnc2n1` [Compound 4], the IC50 in [3] is 0.56 to 1.5 nM; in [1] (setting [17]), 0.89 nM; in test [2] (setting [18]), 17000 nM; with CEM lymphoblasts (setting [19]), 6.6 nM; in the test with CEM/MTX lymphoblasts (setting [19]) it was 1100 nM. Besides, in test [1], the “L1210 normalized relative to MTX” value was found to be 5.2. Moreover, the “L1210/R81 normalized relative to MTX” value in test [2] is reported as 12. For the same compound, in the test with CEM lymphoblasts, the “CEM normalized relative to MTX” value is 5.0. For the same compound, in the test with CEM/MTX lymphoblasts, the “CEM/MTX normalized relative to MTX” value was 6.0.

In the case of `CN(Cc1cnc2nc(N)nc(N)c2n1)c1ccc(C(=O)N[C@@H](CCC(=O)O)C(=O)O)cc1` [Methotrexate], the IC50 is 200000 nM in test [2] (48 h); 32 nM in the test on CEM lymphoblasts (48 h); 6600 nM with CEM/MTX lymphoblasts (48 h); 38 nM in the test on SCC15 cells [4]; 580 nM in the test on SCC15/R1 cells [5]; 7.5 nM with SCC25 cells [6]. In addition, the IC50 in the test on SCC25/R1 cells [7] is 150 nM. Besides, the “substrate for mouse liver FPGS” value in the test on mouse liver FPGS is “substrates”.

In the case of `CN(Cc1cnc2nc(N)nc(N)c2n1)c1ccc(C(=O)N[C@@H](CCC(=O)OC(C)(C)C)C(=O)O)cc1` [γ-t-butyl ester of MTX, γ-tert. -butyl ester of methotrexate], in test [8] (less potent than MTX), the “less potent than MTX against the parental SCC15 and SCC25 cells” value is listed as “at least 10 fold”. For the same compound, the “less potent than MTX against the MTX-resistant SCC15/R1 and SCC25/R1 sublines” value in [9] is recorded as “at least 30 fold”. The IC50 is 600 nM in the test with SCC15 cells [4], 1300 nM with SCC15/R1 cells [5], 400 nM with SCC25 cells [6] and 780 nM with SCC25/R1 cells [7].

As for `Nc1nc(N)c2nc(CNc3ccc(C(=O)N[C@@H](CCC(=O)O)C(=O)O)cc3)cnc2n1` [Aminopterin, reference compound], the IC50 in test [2] (48 h) stood at 84000 nM.

Consider `NCCC[C@H](NC(=O)c1ccc(NCc2cnc3nc(N)nc(N)c3n2)cc1)C(=O)O` [Compound 1, N^α -(4-Amino-4-deoxypteroyl)-L-ornithine], for which the IC50 in test [1] (L1210, 48 h) worked out at 1300 nM; in [2] (48 h) it was 32000 nM. Moreover, the “inhibitor of dihydrofolate reductase” value in test [10] was “potent inhibitor”. For the same compound, in [11], the “inhibitor of folylpolyglutamate synthetase” value was “potent inhibitor”. The “inhibitor of cell growth in culture” value with cell growth in culture was “relatively inactive”.

For `Nc1nc(N)c2nc(CNc3ccc(C(=O)N[C@@H](CCCNC(=O)c4ccccc4C(=O)O)C(=O)O)cc3)cnc2n1` [Compound 7, N^α -(4-Amino-4-deoxypteroyl)-N^67-hemi-phthaloyl-L-Ornithine], the IC50 in test [1] (L1210, 48 h) is 0.75 nM; with CEM lymphoblasts (48 h), 4.3 nM; in the test with CEM/MTX lymphoblasts (48 h) it was 420 nM; with SCC15 cells [12], 1.1 nM; with SCC15/R1 cells [13], 4 nM; in the test with SCC25 cells [14] it was 0.96 nM. In addition, the IC50 in the test with SCC25/R1 cells [15] came to 1.3 nM. Besides, the “more potent than MTX against the parental SCC15 and SCC25 cells” value in test [8] (more potent than MTX) is listed as 10- to 30 fold. For the same compound, in test [16], the “activity shown in Table 2, result in words” value is “high activity”.

As to `Nc1nc(N)c2nc(CNc3ccc(C(=O)N[C@@H](CCCNC(=O)c4ccc(Cl)c(Cl)c4)C(=O)O)cc3)cnc2n1` [Compound 6], the IC50 in [1] (setting [17]) is 32 nM; in [2] (setting [18]) it was 127000 nM; in the test on CEM lymphoblasts (setting [19]), 7400 nM; with CEM/MTX lymphoblasts (setting [19]), 10000 nM. In addition, the “L1210 normalized relative to MTX” value in [1] is reported as 0.14. Further, in test [2], the “L1210/R81 normalized relative to MTX” value is reported as 1.6. Besides, in the test on CEM lymphoblasts, the “CEM normalized relative to MTX” value is 0.0043. The “CEM/MTX normalized relative to MTX” value in the test on CEM/MTX lymphoblasts worked out at 0.66.

Regarding `CC(=O)NCCC[C@H](NC(=O)c1ccc(NCc2cnc3nc(N)nc(N)c3n2)cc1)C(=O)O` [Compound 2], the IC50 in test [1] (setting [17]) amounted to 17 nM; in test [2] (setting [18]), 81000 nM. Also, the “L1210 normalized relative to MTX” value in test [1] worked out at 0.27. Moreover, the “L1210/R81 normalized relative to MTX” value in [2] was found to be 2.5.

Values taken from patent publication US4767761A, “Ornithine derivatives and their use as methotrexate-resistant cell inhibitors” (priority 1987, dated 1988).
